Data on two compounds can be found in US11596633B2, “SHP2 inhibitor compositions and methods for treating cancer” (Revolution Medicines, Inc., priority 2017, dated 2023).

Structures are written as SMILES. Where only a bound is given, the exact number is not on record here.

One assay deals with MIAPaCa-2. Nature of the assay: 3D cell viability (CTG). Format: cell-based. Particulars: Homo sapiens, MIA PaCa-2; MIAPaCa-2, KRAS G12C, 3D culture.
Another assay concerns NCI-H1792. Kind of assay: 3D cell viability (CTG). It counts as cell-based. The settings on record: Homo sapiens; NCI-H1792, KRAS G12C, 3D culture.
A further assay deals with NCI-H1373. Kind of assay: 3D cell viability (CTG). Format: cell-based. Particulars: Homo sapiens; NCI-H1373, KRAS G12C, 3D culture.
The subject of a further assay is NCI-H2122. Nature of the assay: 3D cell viability (CTG). It counts as cell-based. Particulars: Homo sapiens; NCI-H2122, KRAS G12C, 3D culture.
Another assay deals with LS513. Kind of assay: 3D cell viability (CTG). The settings on record: Homo sapiens, LS-513; LS513, KRAS G12D, 3D culture. Format: cell-based.
A further assay has as its system NCI-H727. Nature of the assay: 3D cell viability (CTG). Format: cell-based. Particulars: Homo sapiens; NCI-H727, KRAS G12V, 3D culture.
A further assay has as its system SHP-77. Kind of assay: 3D cell viability (CTG). It counts as cell-based. The settings on record: Homo sapiens, SHP77; SHP-77, KRAS G12V, 3D culture.
The subject of the next assay is SW900. Kind of assay: 3D cell viability (CTG). Particulars: Homo sapiens; SW900, KRAS G12V, 3D culture. Format: cell-based.
The next assay has as its system LoVo. Nature of the assay: 3D cell viability (CTG). It counts as cell-based. Particulars: Homo sapiens, KRAS G13D, 3D culture.
The test system of the next assay is NCI-H1155. Nature of the assay: 3D cell viability (CTG). The settings on record: Homo sapiens; NCI-H1155, KRAS Q61H, 3D culture. It counts as cell-based.
The next assay has as its system SNU-668. Kind of assay: 3D cell viability (CTG). Format: cell-based. Particulars: SNU668; SNU-668, KRAS Q61K, 3D culture.
Assay [1] relates to H358 KRas G12C xenograft. Kind of assay: NSCLC H358 xenograft, CB.17 SCID mice. Particulars: oral administration. It counts as in vivo. Here is the method: (§1) Compound A or Compound B were administered by oral gavage daily. The positive control, paclitaxel (30 mg/kg iv) in 5% ethanol, 5% cremophor EL, in 5% dextrose in deionized water was administered once every five days. Trametinib (1 mg/kg PO in 0.5% Methylcellulose+0.5% Tween 80) was administered by oral gavage daily. The study endpoint was defined as a mean tumor volume of 2000 mm^3 in the control group or 22 days, whichever came first. Mean tumor volume data are reported for all animals that remained on study.

The subject of the next assay is NF1 LOF cell lines. Particulars: 3D culture, CTG Day 7. Here is the method:
(§2) To evaluate cell viability in 3D culture, cells in logarithmic growth phase were plated in growth medium containing 0.65% methylcellulose at an optimum seeding density. Cells were incubated overnight prior to treatment with different concentrations of the test article. Cells were cultured for an additional seven days and cell viability assessed using the CellTiterGlo™ (CTG) reagent, according to the manufacturer's instructions. In some instances, cells were grown in 3D culture as spheroids. Briefly, 2500 cells/well were seeded in round bottom ultra-low attachment 96-well plates (Corning) in growth media supplemented with 10% fetal bovine serum and 1% penicillin/streptomycin, and allowed to form spheroids for 72 hours at 37° C. in 5% CO2. […] Following drug exposure for five days, cell viability in spheroids was determined using the CellTiter-Glo assay kit. H1838 cells were seeded at 5×10^3 cells per well of a 12-well plate. After one day in culture, cells were treated with the test article, which was then replenished every three days.

Another assay relates to YUHEF melanoma cell line. The settings on record: YUHEF (NF1 Q853*/FS-indel), 3D culture. As to the method:
as §2

For the next assay, the system named is A375 cells. Kind of assay: 3D proliferation (CTG). It counts as cell-based. The settings on record: A375 (Class I BRAF V600E), 3D culture.
The subject of assay [2] is H358 KRas G12C xenograft. Nature of the assay: NSCLC H358 xenograft, athymic nude mice. Format: in vivo. Particulars: oral administration. Here is the method:
as §1

Protocol for LoVo: (§3) To evaluate cell viability in 3D culture, cells in logarithmic growth phase were plated in growth medium containing 0.65% methylcellulose at an optimum seeding density. Cells were incubated overnight prior to treatment with different concentrations of the test article. Cells were cultured for an additional seven days and cell viability assessed using the CellTiterGlo™ (CTG) reagent, according to the manufacturer's instructions. In some instances, cells were grown in 3D culture as spheroids. Briefly, 2500 cells/well were seeded in round bottom ultra-low attachment 96-well plates (Corning) in growth media supplemented with 10% fetal bovine serum and 1% penicillin/streptomycin, and allowed to form spheroids for 72 hours at 37° C. in 5% CO2. […] Following drug exposure for five days, cell viability in spheroids was determined using the CellTiter-Glo assay kit. […] After one day in culture, cells were treated with the test article, which was then replenished every three days. Cells were maintained in culture for 10 days until the control wells reached confluency at which time the cells were fixed and stained with crystal violet.
Protocol for NCI-H1373: as §3
Protocol for NCI-H1792: as §3
Protocol for SW900: as §3

Take `Nc1nc(N2CCC3(CCC[C@H]3N)CC2)cnc1Sc1ccnc(Cl)c1Cl` [Compound A]: the IC50 (in general, the point on the concentration scale where inhibition reaches its midpoint) came out at 0.3 µM in the assay with MIAPaCa-2; 1.2 µM in the assay with NCI-H1792; 1.3 µM in the assay with NCI-H1373; 5.9 µM in the assay with NCI-H2122; 0.1 µM in the assay on LS513; 0.3 µM with NCI-H727. The IC50 with SHP-77, in the assay on SW900, in the assay on LoVo, with NCI-H1155 and in the assay with SNU-668 was above 10 µM throughout. The tumor volume entry with H358 KRas G12C xenograft [1] is on record as “dose-dependent decrease”.

For `Cc1nc(N2CCC3(CC2)CO[C@@H](C)[C@H]3N)c(CO)nc1-c1cccc(Cl)c1Cl` [Compound B], the “NF1 LOF cell lines whose proliferation exhibited sensitivity” value in the assay with NF1 LOF cell lines is recorded as 3/4. Further, the effect on proliferation entry with YUHEF melanoma cell line was “No effect”. Besides, the proliferation entry with A375 cells was “failed to suppress”. The tumor volume entry in the assay on H358 KRas G12C xenograft [2] was “dose-dependent decrease”.
